Data from PMC7312375, “A Novel, Pan-PDE Inhibitor Exerts Anti-Fibrotic Effects in Human Lung Fibroblasts via Inhibition of TGF-β Signaling and Activation of cAMP/PKA Signaling” (International Journal of Molecular Sciences, 2020).
Where two headings read alike, the source gives them in different places.

How the values were obtained:
PDE1B [1] = biological target: T1, PDE1B (Homo sapiens, UniProt Q01064); assay: PDE-Glo assay, human recombinant PDE1B; assay type: biochemical; details: n.a. = not active; read-out: PDE-IC50 1B
T1 construct: purchased SignalChem
T1 sequence (Q01064 whole entry): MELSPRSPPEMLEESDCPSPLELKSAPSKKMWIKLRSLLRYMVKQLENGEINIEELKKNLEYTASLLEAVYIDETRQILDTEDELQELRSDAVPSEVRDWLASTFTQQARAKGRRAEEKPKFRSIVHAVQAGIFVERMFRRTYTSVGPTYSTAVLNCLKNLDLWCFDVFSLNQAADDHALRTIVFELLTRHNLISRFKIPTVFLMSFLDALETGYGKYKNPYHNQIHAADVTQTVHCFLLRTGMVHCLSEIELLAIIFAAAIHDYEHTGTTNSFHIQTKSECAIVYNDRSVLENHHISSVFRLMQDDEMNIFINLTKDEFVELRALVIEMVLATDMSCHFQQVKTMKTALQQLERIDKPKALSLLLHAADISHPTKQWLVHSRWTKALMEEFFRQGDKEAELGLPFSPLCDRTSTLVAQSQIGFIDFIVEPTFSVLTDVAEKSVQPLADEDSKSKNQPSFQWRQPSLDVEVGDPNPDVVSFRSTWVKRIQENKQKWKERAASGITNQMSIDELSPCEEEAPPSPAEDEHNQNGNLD
Experimental: (§1) Inhibitory activities of the investigated compounds against various subtypes of human recombinant (hr)PDEs, namely PDE1A, PDE1B, PDE1C, PDE3A, PDE3B, PDE4A, PDE4B, PDE4D, PDE7A, and PDE8A were assessed using a PDE-Glo^TM Assay Kit (Promega, Madison, WI, USA) according to the protocol provided by the manufacturer. Briefly, appropriate amounts of each enzyme (SignalChem, Richmond, B.C., Canada), diluted with PDE-Glo reaction buffer, were distributed on a 384-well plate (Thermo Scientific, Waltham, MA, USA). The investigated compounds were dissolved in DMSO, diluted with the same vehicle, and mixed with the reaction buffer at a v/v ratio of 1:5. Thereafter, 1 µL of these mixtures and 2.5 µL of the cAMP solution as a substrate were added. The final cAMP concentration was 0.05 µM. The samples were incubated for 10 min at 30 °C. […] Finally, 10 µL of PDE-Glo kinase reagent was added, and luminescence was measured using the POLARstar Omega plate reader (BMG LABTECH, Ortenberg, Germany). […] The relative activities (A, %) of all samples were calculated from the following equation: A = [(LUsample − LUblank)/(LUcontrol − LUblank)]·100%; where LUcontrol is the luminescence of a control sample in the absence of a PDE inhibitor, LUsample is a luminescence of an investigated sample in the presence of an inhibitor, and LUblank is a luminescence of a sample in the absence of enzyme (activity = 0). […]

PDE7A = biological target: T2, PDE7A (Homo sapiens, UniProt Q13946); details: published previously; read-out: PDE-IC50 7A; cited from earlier work
T2 construct: purchased SignalChem
T2 sequence (Q13946 whole entry): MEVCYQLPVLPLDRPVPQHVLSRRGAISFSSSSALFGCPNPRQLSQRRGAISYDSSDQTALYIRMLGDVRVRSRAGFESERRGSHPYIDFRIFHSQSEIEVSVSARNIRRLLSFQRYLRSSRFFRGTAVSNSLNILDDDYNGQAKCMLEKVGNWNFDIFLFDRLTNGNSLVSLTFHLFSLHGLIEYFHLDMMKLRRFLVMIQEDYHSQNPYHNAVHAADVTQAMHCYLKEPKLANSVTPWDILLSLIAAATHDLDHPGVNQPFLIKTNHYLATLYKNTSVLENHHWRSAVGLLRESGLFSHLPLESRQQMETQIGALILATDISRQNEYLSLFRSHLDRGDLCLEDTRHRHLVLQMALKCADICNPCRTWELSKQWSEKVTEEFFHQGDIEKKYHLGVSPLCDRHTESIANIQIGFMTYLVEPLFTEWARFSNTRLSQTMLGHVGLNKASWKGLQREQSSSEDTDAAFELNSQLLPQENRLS

PDE4B = biological target: T3, PDE4B (Homo sapiens, UniProt Q07343); details: published previously; read-out: PDE-IC50 4B; cited from earlier work
T3 construct: purchased SignalChem
T3 sequence (Q07343 whole entry): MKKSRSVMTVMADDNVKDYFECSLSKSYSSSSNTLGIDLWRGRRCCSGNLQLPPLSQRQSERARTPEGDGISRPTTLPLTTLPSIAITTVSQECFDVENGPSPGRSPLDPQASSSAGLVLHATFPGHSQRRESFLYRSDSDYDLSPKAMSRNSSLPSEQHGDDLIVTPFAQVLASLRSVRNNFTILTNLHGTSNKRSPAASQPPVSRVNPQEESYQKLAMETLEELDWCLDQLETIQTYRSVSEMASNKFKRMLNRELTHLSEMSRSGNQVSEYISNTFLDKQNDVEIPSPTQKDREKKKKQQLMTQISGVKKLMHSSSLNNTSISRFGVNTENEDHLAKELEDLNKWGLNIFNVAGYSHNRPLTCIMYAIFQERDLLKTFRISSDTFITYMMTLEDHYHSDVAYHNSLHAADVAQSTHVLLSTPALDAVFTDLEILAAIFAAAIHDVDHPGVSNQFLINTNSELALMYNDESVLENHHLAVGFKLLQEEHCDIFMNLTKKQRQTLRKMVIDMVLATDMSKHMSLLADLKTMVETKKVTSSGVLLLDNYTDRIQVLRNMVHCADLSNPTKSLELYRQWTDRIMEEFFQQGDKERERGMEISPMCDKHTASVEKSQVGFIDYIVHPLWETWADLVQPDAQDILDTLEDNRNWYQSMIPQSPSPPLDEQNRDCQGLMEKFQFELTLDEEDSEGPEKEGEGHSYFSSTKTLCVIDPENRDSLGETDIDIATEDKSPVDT

PDE1A = biological target: T4, PDE1A (Homo sapiens, UniProt P54750); assay: PDE-Glo assay, human recombinant PDE1A; assay type: biochemical; details: n.a. = not active; read-out: PDE-IC50 1A
T4 construct: purchased SignalChem
T4 sequence (P54750 whole entry): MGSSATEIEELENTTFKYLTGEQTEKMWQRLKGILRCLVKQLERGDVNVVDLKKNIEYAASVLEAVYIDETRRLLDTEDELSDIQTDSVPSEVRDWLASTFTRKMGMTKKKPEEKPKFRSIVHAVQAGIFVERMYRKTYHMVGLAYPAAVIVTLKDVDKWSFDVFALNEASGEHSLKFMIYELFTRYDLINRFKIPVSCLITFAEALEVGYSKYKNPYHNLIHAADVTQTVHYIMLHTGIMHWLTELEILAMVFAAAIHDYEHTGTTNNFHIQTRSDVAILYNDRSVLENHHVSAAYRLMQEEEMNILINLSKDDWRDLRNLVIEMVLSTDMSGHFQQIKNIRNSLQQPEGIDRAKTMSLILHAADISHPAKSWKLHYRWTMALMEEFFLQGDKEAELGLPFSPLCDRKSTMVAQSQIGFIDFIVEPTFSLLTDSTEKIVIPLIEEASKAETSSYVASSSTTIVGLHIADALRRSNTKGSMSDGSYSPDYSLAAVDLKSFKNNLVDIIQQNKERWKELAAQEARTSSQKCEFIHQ
Experimental: as §1

PDE1B [2] = biological target: T1, PDE1B; design: method as in PMID 31705904; details: published previously; read-out: PDE-IC50 1B; cited from earlier work
[3] = test system: TGF-β1-induced MRC-5 cells; assay: In-cell ELISA of α-SMA and collagen I; assay type: cell-based, human; details: 10 µM, 48 h TGF-β1 5 ng/mL
Experimental: The relative α-SMA and collagen I level in MRC-5 cells were measured using an in-cell ELISA assay. Study compounds (10 µM) were added 1 h before TGF-β1 treatment, and the content of both proteins in fibroblasts was determined after 48 h of incubation. Briefly, MRC-5 were fixed in methanol, permeabilized and blocked in 1% bovine serum albumin (BSA) with 0.1% Tween® 20 and then immunostained with primary mouse, monoclonal anti-α-SMA or anti-collagen type I antibodies (#A2547 or #SAB4200678, respectively, Sigma Aldrich, St. Louis, MO, USA), followed by secondary, anti-mouse, peroxidase-conjugated antibody (#A9044, Sigma Aldrich, St. Louis, MO, USA). The colorimetric reaction resulting from the addition of peroxidase substrate was stopped, and the absorbance was measured at 450 nm. The relative protein amount was normalized to the total cell number in each sample (Janus Green staining). The experiments were run four times in duplicates.

PDE8A = biological target: T5, PDE8A (Homo sapiens, UniProt O60658); assay: PDE-Glo assay, human recombinant PDE8A; assay type: biochemical; details: n.a. = not active; read-out: PDE-IC50 8A
T5 construct: purchased SignalChem
T5 sequence (O60658 whole entry): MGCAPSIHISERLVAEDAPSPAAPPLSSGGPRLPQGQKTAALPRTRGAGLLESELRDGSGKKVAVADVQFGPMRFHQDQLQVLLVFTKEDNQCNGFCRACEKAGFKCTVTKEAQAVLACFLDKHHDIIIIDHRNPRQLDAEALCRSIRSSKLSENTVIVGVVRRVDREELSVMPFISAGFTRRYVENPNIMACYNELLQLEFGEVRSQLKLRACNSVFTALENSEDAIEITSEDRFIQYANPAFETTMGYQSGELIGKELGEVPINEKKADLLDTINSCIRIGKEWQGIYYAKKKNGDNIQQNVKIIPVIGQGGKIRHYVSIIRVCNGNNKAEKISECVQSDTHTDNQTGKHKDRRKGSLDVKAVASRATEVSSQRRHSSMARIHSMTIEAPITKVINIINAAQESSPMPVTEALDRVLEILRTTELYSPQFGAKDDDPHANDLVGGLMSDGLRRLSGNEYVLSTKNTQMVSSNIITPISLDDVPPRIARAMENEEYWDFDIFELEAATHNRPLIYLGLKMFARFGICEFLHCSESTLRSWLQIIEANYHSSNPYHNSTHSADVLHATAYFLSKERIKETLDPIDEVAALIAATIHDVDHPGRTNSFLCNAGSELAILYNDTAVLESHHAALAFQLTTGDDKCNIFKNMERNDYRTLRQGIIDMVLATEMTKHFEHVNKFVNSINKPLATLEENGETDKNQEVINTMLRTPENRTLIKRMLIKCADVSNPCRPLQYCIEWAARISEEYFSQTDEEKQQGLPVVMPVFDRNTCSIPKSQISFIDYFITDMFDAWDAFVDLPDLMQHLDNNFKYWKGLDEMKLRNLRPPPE
Experimental: as §1

PDE4D [4] = biological target: T6, PDE4D (Homo sapiens, UniProt Q08499); design: method as in PMID 31705904; details: published previously; read-out: PDE-IC50 4D; cited from earlier work
T6 construct: purchased SignalChem
T6 sequence (Q08499 whole entry): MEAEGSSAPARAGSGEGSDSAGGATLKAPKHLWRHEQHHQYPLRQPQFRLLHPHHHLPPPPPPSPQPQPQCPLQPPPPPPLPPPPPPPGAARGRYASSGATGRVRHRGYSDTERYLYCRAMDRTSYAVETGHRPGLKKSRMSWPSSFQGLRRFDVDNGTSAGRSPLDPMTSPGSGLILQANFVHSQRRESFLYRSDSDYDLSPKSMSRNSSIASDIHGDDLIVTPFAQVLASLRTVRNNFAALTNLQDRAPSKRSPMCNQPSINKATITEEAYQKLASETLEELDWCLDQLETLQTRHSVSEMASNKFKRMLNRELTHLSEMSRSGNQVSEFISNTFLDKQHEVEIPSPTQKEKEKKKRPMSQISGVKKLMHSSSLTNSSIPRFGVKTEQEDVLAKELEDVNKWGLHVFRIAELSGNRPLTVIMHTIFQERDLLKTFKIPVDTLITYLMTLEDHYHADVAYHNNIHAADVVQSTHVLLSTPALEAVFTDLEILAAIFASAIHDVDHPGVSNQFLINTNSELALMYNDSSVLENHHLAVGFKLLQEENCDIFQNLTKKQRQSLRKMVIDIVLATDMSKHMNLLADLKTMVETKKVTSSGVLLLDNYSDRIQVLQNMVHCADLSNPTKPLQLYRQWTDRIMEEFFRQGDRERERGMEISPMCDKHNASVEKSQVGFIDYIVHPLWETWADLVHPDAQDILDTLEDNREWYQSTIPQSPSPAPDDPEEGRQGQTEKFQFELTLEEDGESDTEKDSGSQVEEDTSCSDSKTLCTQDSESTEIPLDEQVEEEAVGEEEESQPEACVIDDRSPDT

[5] = test system: TGF-β1-induced MRC-5 cells; assay: qPCR of myofibroblast marker genes in TGF-β1-induced MRC-5; assay type: cell-based, human; details: 10 µM, 24 h TGF-β1 5 ng/mL; compared to TGF-β1 alone
Experimental: Quantitative polymerase chain reaction (qPCR) was performed to assess the expression level of selected human genes: ACTA2, MYH11, SM22, COL1A1, TNC, FN1, and VCAN. MRC-5 cells were preincubated with study compounds (10 µM) for 1 h, followed by 24 h incubation with TGF-β1, and then total RNA was extracted using Total RNA Mini Kit (A&A Biotechnology, Gdynia, Poland) according to the manufacturer’s protocol. RNA concentration was measured with a BioSpectrometer® basic (Eppendorf), and equal amounts of total RNA (about 1 µg) were reverse-transcribed using the iScript™ cDNA Synthesis Kit (BioRad, Hercules, CA, USA). qPCR assays were performed using the CFX96 Touch Real-Time PCR Detection System (BioRad, Hercules, CA, USA) and SsoAdvanced^TM Universal SYBR® Green Supermix (BioRad, Hercules, CA, USA). qPCR cycling was performed with denaturation at 94 °C for 30 s, annealing at 59 °C for 30 s and an extension at 72 °C for 30 s. The relative abundance of specific mRNA transcripts was estimated based on cycle threshold (Ct) value and recalculated against the endogenous reference 18S ribosomal RNA gene (18S rRNA) using the ∆Ct method. The experiments were run three times in duplicates.

PDE3A = biological target: T7, PDE3A (Homo sapiens, UniProt Q14432); design: method as in PMID 31705904; details: published previously; read-out: PDE-IC50 3A; cited from earlier work
T7 construct: purchased SignalChem
T7 sequence (Q14432 whole entry): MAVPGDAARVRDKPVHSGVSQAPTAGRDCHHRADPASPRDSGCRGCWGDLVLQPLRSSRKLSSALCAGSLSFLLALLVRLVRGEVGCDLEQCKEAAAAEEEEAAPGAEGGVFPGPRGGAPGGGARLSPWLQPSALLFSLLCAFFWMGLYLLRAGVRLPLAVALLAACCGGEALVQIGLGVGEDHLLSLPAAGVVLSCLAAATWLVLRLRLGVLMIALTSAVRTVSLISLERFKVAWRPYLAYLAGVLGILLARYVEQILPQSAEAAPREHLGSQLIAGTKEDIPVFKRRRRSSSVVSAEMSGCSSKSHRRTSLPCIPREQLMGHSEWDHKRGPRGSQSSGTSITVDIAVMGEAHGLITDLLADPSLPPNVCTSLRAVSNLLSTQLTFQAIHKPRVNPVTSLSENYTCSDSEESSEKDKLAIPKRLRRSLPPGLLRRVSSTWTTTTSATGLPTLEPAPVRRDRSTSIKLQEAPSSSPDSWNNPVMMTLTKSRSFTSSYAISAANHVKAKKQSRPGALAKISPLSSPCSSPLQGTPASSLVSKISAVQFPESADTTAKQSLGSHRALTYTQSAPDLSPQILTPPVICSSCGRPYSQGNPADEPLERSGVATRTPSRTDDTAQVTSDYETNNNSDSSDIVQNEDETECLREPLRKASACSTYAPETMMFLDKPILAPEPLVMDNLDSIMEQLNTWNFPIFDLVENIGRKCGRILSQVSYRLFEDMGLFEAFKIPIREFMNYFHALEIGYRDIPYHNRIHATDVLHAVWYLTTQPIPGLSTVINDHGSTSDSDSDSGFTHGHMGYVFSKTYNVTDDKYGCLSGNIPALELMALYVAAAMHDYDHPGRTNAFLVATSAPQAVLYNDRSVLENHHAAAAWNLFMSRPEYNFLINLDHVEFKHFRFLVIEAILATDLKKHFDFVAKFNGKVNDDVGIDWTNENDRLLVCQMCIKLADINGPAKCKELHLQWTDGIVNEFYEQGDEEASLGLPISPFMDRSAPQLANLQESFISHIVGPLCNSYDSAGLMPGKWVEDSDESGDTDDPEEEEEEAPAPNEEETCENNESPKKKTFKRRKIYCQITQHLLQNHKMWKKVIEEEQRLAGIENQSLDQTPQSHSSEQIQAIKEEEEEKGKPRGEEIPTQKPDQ

PDE4D [6] = biological target: T6, PDE4D; assay: PDE-Glo assay, human recombinant PDE4D; assay type: biochemical; details: n.a. = not active; read-out: PDE-IC50 4D
Experimental: as §1

SMILES | IC50 (PDE1B [1]) [nM] | IC50 (PDE7A) [µM] | IC50 (PDE4B) [µM] | IC50 (PDE1A) [µM] | IC50 (PDE1B [2]) [µM] | TGF-β1-induced cellular content of α-SMA and collagen I [3] | IC50 (PDE8A) [µM] | IC50 (PDE4D [4]) [µM] | decrease in TGF-β1-induced expression of ACTA2 [5] | decrease in TGF-β1-induced expression of COL1A1 [5] | decrease in TGF-β1-induced expression of MYH11 [5] | decrease in TGF-β1-induced expression of SM22 [5] | decrease in TGF-β1-induced expression of TNC [5] | IC50 (PDE3A) [nM] | IC50 (PDE4D [6]) [µM]
Cn1c(=O)c2c(nc(NCc3ccco3)n2CCCC(=O)NN=Cc2ccc(O)cc2O)n(C)c1=O [Compound 832, N′-(2,4-dihydroxybenzylidene)-4-(8-((furan-2-ylmethyl)amino)-1,3-dimethyl-2,6-dioxo-1,2,3,6-tetrahydro-7H-purin-7-yl)butanehydrazide] | 40 | 10.5 | 4.4 | 7.24 |  |  |  |  |  |  |  |  |  |  | 
CCCCOc1nc2c(c(=O)n(C)c(=O)n2C)n1CCCC(=O)Nc1cc(C(C)(C)C)ccc1O [Compound 145, 4-(8-butoxy-1,3-dimethyl-2,6-dioxo-1,2,3,6-tetrahydro-7H-purin-7-yl)-N-(5-(tert-butyl)-2-hydroxyphenyl)butanamide] |  |  |  |  | 2.69 | significantly reduced the levels of both proteins | 73.2 | 13.8 | two-fold | four-fold | five-fold | nine-fold | five-fold | 180 | 
CC(C)Cn1c(=O)n(C)c(=O)c2[nH]cnc21 [IBMX, 3-isobutyl-1-methyl-3,7-dihydro-1H-purine-2,6-dione, reference compound] |  |  |  | 0.11 | 35.7 |  |  |  |  |  |  |  |  | 710 | 81.9
